The values below come from patent US20040038947A1, “Method of treating ischemia/reperfusion injury with nitroxyl donors” (The Gov. of the U.S. of America as represented by the Sec. …, priority 2002, published 2004).

In one data set the test system is isolated rat heart. Nature of the data set: Example 2: coronary perfusion pressure during reperfusion. Conditions: FIG. 6. The method, then:
FIG. 6 is a graph showing the coronary perfusion pressures for the IPA/NO intervention of FIG. 5 and an intervention in an isolated rat heart with a vehicle for the same protocol as was used with AS and vehicle in FIG. 1. IPA/NO is represented by diamonds; vehicle is represented by squares.
Isolated heart perfusion. Each animal was anesthetized with 1 g/kg urethane i.p. 10 min after heparin (2,500 U, i.m.) treatment. The chest was opened, and the heart was rapidly excised, placed in ice-cold buffer solution and weighed. Isolated rat hearts were attached to the perfusion apparatus and retrogradely perfused with oxygenated buffer solution at 37° C. The hearts were instrumented as previously described in Rastaldo et al., “P-450 metabolite of arachidonic acid mediates bradykinin-induced negative inotropic effect,” Am. […] Coronary perfusion pressure (CPP) and coronary flow were monitored with a second electromanometer and an electromagnetic flow-probe, respectively, both placed along the perfusion line. Left ventricular pressure, coronary flow and coronary perfusion pressure were recorded using a TEAC R-71 recorder, digitized at 1000 Hz and analyzed off-line with DataQ-Instruments/CODAS software, which allowed quantification of the maximum rate of increase of LVP during systole (dP/dtmax). […]

Data set [1] relates to Isolated rat hearts. Nature of the data set: Example 2: infarct size after ischemia/reperfusion, different set of isolated rat hearts. Conditions: same protocol as AS in Example 1, only one rat heart per intervention, FIG. 5. The method, then: FIG. 5 is a graph showing infarct size following 30 min of global ischemia and 30 min reperfusion for interventions in a different set of isolated rat hearts for interventions with control; ischemic preconditioning (IP); IPA/NO; AS; and DEA/NO.
To corroborate the data relative to myocardial injury, determined by LDH release, infarct areas were also assessed in a blinded fashion. At the end of the course (30 min reperfusion), each heart was rapidly removed from the perfusion apparatus, and the LV dissected into 2-3 mm circumferential slices. Following 15 min of incubation at 37° C. in 0.1% solution of nitro blue tetrazolium in phosphate buffer as described in Ma et al., “Opposite effects of nitric oxide and nitroxyl on postischemic myocardial injury,” Proc. Natl. Acad. Sci., 96:14617-14622 (1999), unstained necrotic tissue was separated from the stained viable tissue. The areas of viable and necrotic tissue were carefully separate by and independent observer (D. Mancardi, C. Penna, or R. Rastaldo) who was not aware of the origin of the hearts. The weight of the necrotic and non-necrotic tissues was then determined and the necrotic mass expressed as a percentage of total left ventricular mass.
The same methods as employed in Example 1 were used to assess the ischemia/reperfusion injury reducing effects of the nitroxyl donor IPA/NO. […]

The nature of another data set: Nitroxyl donation pH. Conditions: donates from this pH to about 10. It is filed as physicochemical. The source says: “Nitroxyl donation pH” is the pH at which and above which a nitroxyl-donating compound donates nitroxyl.
Further, compounds are easily tested for nitroxyl donation with routine experiments. Although it is impractical to directly measure whether nitroxyl is donated, several tests are accepted for determining whether a compound donates nitroxyl. For example, the compound of interest can be placed in solution, for example in water, in a sealed container. After sufficient time for disassociation has elapsed, such as from several minutes to several hours, the headspace gas is withdrawn and analyzed to determine its composition, such as by gas chromatography and/or mass spectroscopy. […] Nitroxyl donation also can be detected by exposing the target donor to metmyoglobin (Mb^3+). Nitroxyl reacts with Mb^3+ to form an Mb^2+-NO complex, which can be detected by changes in the ultraviolet/visible spectrum or by Electron Paramagnetic Resonance (EPR). […]
Testing for nitroxyl donation in some cases is performed at a range of pHs to determine the nitroxyl donation pH of the nitroxyl-donating compound. […] After the lowest pH at which nitroxyl donation occurs in a first set of tests is found, additional tests can be performed with narrower ranges of pH around the first determined nitroxyl donation pH to obtain a more specific nitroxyl donation pH. […]

In data set [2] the test system is Isolated rat hearts. Nature of the data set: Pre-ischemic cardiac function of isolated perfused rat hearts (Table 1). Particulars: mean. Here is the method:
(§1) Isolated heart perfusion. Each animal was anesthetized with 1 g/kg urethane i.p. 10 min after heparin (2,500 U, i.m.) treatment. The chest was opened, and the heart was rapidly excised, placed in ice-cold buffer solution and weighed. Isolated rat hearts were attached to the perfusion apparatus and retrogradely perfused with oxygenated buffer solution at 37° C. The hearts were instrumented as previously described in Rastaldo et al., “P-450 metabolite of arachidonic acid mediates bradykinin-induced negative inotropic effect,” Am. J. Physiol., 280:H2823-H2832 (2001), and Paolocci et al. “cGMP-independent inotropic effects of nitric oxide and peroxynitrite donors: potential role for nitrosylation,” Am. J. Physiol., 279: H1982-H1988 (2000). The flow was maintained constant (9±2 mL/min/g wet weight) to reach a typical coronary perfusion pressure of 85-90 mm Hg. A constant proportion of 10% of the flow rate was applied by means of one of two perfusion pumps (Terumo, Tokyo, Japan) using a 50 mL syringe connected to the aortic cannula. Drug applications (see Experimental Protocols) were performed by switching from the syringe containing buffer alone to the syringe of the other pump containing the drug dissolved in the vehicle at a concentration 10× to the desired final concentration in the heart. A small hole in the left ventricular wall allowed drainage of the thebesian flow, and a polyvinyl-chloride balloon was placed into the left ventricle and connected to an electromanometer for recording of left ventricular pressure (LVP). The hearts were electrically paced at 280-300 bpm and kept in a temperature-controlled chamber (37° C.). Coronary perfusion pressure (CPP) and coronary flow were monitored with a second electromanometer and an electromagnetic flow-probe, respectively, both placed along the perfusion line. Left ventricular pressure, coronary flow and coronary perfusion pressure were recorded using a TEAC R-71 recorder, digitized at 1000 Hz and analyzed off-line with DataQ-Instruments/CODAS software, which allowed quantification of the maximum rate of increase of LVP during systole (dP/dtmax).
Hearts were perfused with Krebs-Henseleit solution gassed with 95% O2 and 5% CO2 of the following composition: 17.7 mM sodium bicarbonate, 127 mM NaCl, 5.1 mM KCl, 1.5 mM CaCl2, 1.26 mM MgCl2, 11 mM D-glucose, supplemented with 5 μg/mL lidocaine.
(§2) Experimental Protocols. Hearts were allowed to stabilize for 30 min, and baseline parameters were recorded. Typically, coronary flow was adjusted within the first 10 min and kept constant from thereon. After 30 min stabilization, hearts were randomly assigned to one of the treatment groups reported below (n=12 in each group), and then subjected to 30 min global, no-flow ischemia, followed by 30 min of reperfusion (I/R) (see FIG. 1). Pacing of the hearts was stopped at the beginning of the ischemic period and restarted after the third minute of reperfusion.
(§3) Hearts in the control group (Group 1) were perfused with buffer for an additional 29 min after stabilization. Group 2 hearts were exposed to AS (1 μM final concentration) for 19 min followed by a 10 min buffer wash-out period. Group 3 hearts were exposed to DEA/NO (0.5 μM final concentration) administered in the same manner as AS. The concentration of DEA/NO was only one half of that of AS since DEA/NO releases up to two moles of […] per mole of donor molecule. In Group 4, a train of three cycles of 3 min global ischemia followed by 5 min of reperfusion was applied after the stabilization phase, followed by a final 10 min buffer wash-out period (IPC protocol).
(§4) Group 5 hearts were exposed to the vehicle (NaOH, final concentration 100 nM) used to dissolve both AS and DEA/NO. To test the influence of switching the myocardial redox state on AS-induced effects, in an additional group of hearts (Group 6) AS was co-infused with N-acetyl-L-cysteine (NAC, 4 mM final concentration). For comparison, hearts were also exposed to NAC alone (Group 7). […]

Data set [3] has as its system Isolated rat hearts. Nature of the data set: Myocardial injury: LDH release in coronary effluent during reperfusion. Particulars: pre-treatment; control 686±14 U/g wet wt; FIG. 4A. Here is the method:
as §2
Hearts in the control group (Group 1) were perfused with buffer for an additional 29 min after stabilization. Group 2 hearts were exposed to AS (1 μM final concentration) for 19 min followed by a 10 min buffer wash-out period. Group 3 hearts were exposed to DEA/NO (0.5 μM final concentration) administered in the same manner as AS. The concentration of DEA/NO was only one half of that of AS since DEA/NO releases up to two moles of […] per mole of donor molecule. […]
Assessment of myocardial injury. […] LDH release was measured as previously described by Bergmeyer & Bernt, “Methods of Enzymatic Analysis,” Verlag Chemie (1974). Data are expressed as cumulative values for the entire reflow period.

Data set [4] deals with Isolated rat hearts. Nature of the data set: Ventricular function (contracture, contractile recovery) of isolated rat hearts in 30 min global ischemia / 30 min reperfusion. The method, then: as §1, §2, §3
Group 5 hearts were exposed to the vehicle (NaOH, final concentration 100 nM) used to dissolve both AS and DEA/NO. […]

Data set [5] concerns Isolated rat hearts. Nature of the data set: Myocardial injury: infarct area by nitro blue tetrazolium staining. Here is the method: as §2, §3, §4
To corroborate the data relative to myocardial injury, determined by LDH release, infarct areas were also assessed in a blinded fashion. […] The weight of the necrotic and non-necrotic tissues was then determined and the necrotic mass expressed as a percentage of total left ventricular mass.

Setting [6] is: End of stabilization period (baseline of the group, before treatment).
[7] abbreviates: Post-treatment (pre-ischemic), AS 1 μM, DEA/NO 0.5 μM, NAC 4 mM, 19 min then 10 min wash-out.

Each structure is given as a SMILES string.

Consider `CC(C)N[N+]([O-])=N[O-].[Na+]` [IPA/NO, isopropylamine/NO], for which the “Coronary perfusion pressure during reperfusion” value with isolated rat heart is given as “returned to normal”. Also, in the data set on Isolated rat hearts [1], the “Infarct size reduction as compared to control” value is given as “about 36%”. Further, the “Nitroxyl donation pH (pH at and above which nitroxyl is donated)” value in the data set “Nitroxyl donation pH” is “about 5.5”.
For the molecule `CCN(CC)/[N+]([O-])=N/O.CCNCC` [DEA/NO, diethylamine diazeniumdiolate], in the data set with Isolated rat hearts [2] (setting [6]), the “CPP (coronary perfusion pressure)” value was 91 mmHg, the DP/dtmax was 3047 mmHg/s, the “Developed LVP” value is 98 mmHg and the “LVEDP (left ventricular end-diastolic pressure)” value was found to be 8 mmHg. In the data set with Isolated rat hearts [2] (setting [7]), the “CPP (coronary perfusion pressure)” value amounted to 90 mmHg, the DP/dtmax is 2976 mmHg/s, the “Developed LVP” value is 99 mmHg and the “LVEDP (left ventricular end-diastolic pressure)” value was found to be 9 mmHg. In the data set with Isolated rat hearts [3], the “LDH release into the coronary venous effluent during reperfusion” value is on record as “significantly reduced”. Besides, in the data set with Isolated rat hearts [4] (compared to control, vehicle, NAC and NAC+AS treated hearts (p<0.05), FIG. 2B), the “Maximal increment of LVEDP during reperfusion” value is “significantly lower”. The “Recovering contractile function (developed LVP, dP/dtmax) after ischemia/reperfusion” value in the data set with Isolated rat hearts [4] (vs control group, p=0.08 for dP/dtmax, p=0.07 for developed LVP, DEA/NO 0.5 μM) is given as “less effective”. In addition, the “Protective effect: infarct size change vs controls” value with Isolated rat hearts [5] (DEA/NO 0.5 μM pre-ischemic, p<0.05 vs controls, weaker than AS or IPC) is given as −30%.
As to `CC(=O)N[C@@H](CS)C(=O)O` [NAC, N-acetyl-L-cysteine], in the data set with Isolated rat hearts [2] (setting [6]), the “CPP (coronary perfusion pressure)” value turned out to be 88 mmHg, the DP/dtmax is 2760 mmHg/s, the “Developed LVP” value came out at 89 mmHg and the “LVEDP (left ventricular end-diastolic pressure)” value came to 8 mmHg. Moreover, in the data set on Isolated rat hearts [2] (setting [7]), the “CPP (coronary perfusion pressure)” value was determined as 88 mmHg, the DP/dtmax was determined as 2481 mmHg/s, the “Developed LVP” value is given as 86 mmHg and the “LVEDP (left ventricular end-diastolic pressure)” value is 10 mmHg. The “Infarcted area, expressed as a percentage of the left ventricle” value in the data set with Isolated rat hearts [5] (30 min global ischemia, 30 min reperfusion, control 39±2%, FIG. 4) is 45+2%.
